In brackets after ≈: the same amount, converted by molar mass.
Key:
P. aeruginosa PAO1 = test: Fixed-concentration (0.25× MIC bolalipid) synergy broth microdilution; format: cell-based, Pseudomonas aeruginosa; conditions: P. aeruginosa PAO1
P. aeruginosa NCTC 13437 = test: as above; format: cell-based, Pseudomonas aeruginosa; conditions: P. aeruginosa NCTC 13437
M. tuberculosis Bleupan = format: in vivo, Galleria mellonella; conditions: in vivo
C. albicans 3179 = test: Broth microdilution MIC; format: cell-based, Candida albicans; conditions: Candida albicans, 3179
C. albicans 3281 = test: Broth microdilution MIC; format: cell-based, Candida albicans; conditions: Candida albicans, 3281
C. auris temp probe = test: Broth microdilution MIC; format: cell-based, Candida auris; conditions: Candidozyma auris
C. glabrata 8018 = test: Broth microdilution MIC; format: cell-based; conditions: Nakaseomyces glabratus, 8018
C. tropicalis 8760 = test: Broth microdilution MIC; format: cell-based; conditions: Candida tropicalis, 8760
C. krusei 3876 = test: Broth microdilution MIC; format: cell-based; conditions: Pichia kudriavzevii, read-out: MIC
C. parapsilosis 3209 = test: Broth microdilution MIC; format: cell-based; conditions: Lodderomyces parapsilosis, read-out: MIC
C. parapsilosis = test: Broth microdilution MIC; format: cell-based; conditions: Lodderomyces parapsilosis, read-out: MIC
[1] = in the presence of 0.25× MIC Octa-C10 (Table S1)
[2] = in the presence of 0.25× MIC Octa-bola (Table S1)

CO[C@H]1/C=C/O[C@@]2(C)Oc3c(C)c(O)c4c(O)c(c(/C=N/N5CCN(C)CC5)c(O)c4c3C2=O)NC(=O)/C(C)=C\C=C\[C@H](C)[C@H](O)[C@@H](C)[C@@H](O)[C@@H](C)[C@H](OC(C)=O)[C@@H]1C [Rifampin]
MIC of antibiotic (P. aeruginosa PAO1; No bola (Table S1)): 16 µg/mL | MIC of antibiotic (P. aeruginosa PAO1; [1]): 8 to 16 µg/mL | MIC of antibiotic (P. aeruginosa PAO1; [2]): 16 µg/mL | MIC of antibiotic (P. aeruginosa NCTC 13437; No bola (Table S1)): 16 µg/mL | MIC of antibiotic (P. aeruginosa NCTC 13437; [1]): 8 µg/mL | MIC of antibiotic (P. aeruginosa NCTC 13437; [2]): 16 µg/mL | larvae rescued (M. tuberculosis Bleupan): All G. mellonella larvae were rescued

OC(Cn1cncn1)(Cn1cncn1)c1ccc(F)cc1F [Fluconazole, reference compound]
MIC (C. albicans 3179): > 128 µg/mL | MIC (C. albicans 3281): > 128 µg/mL | MIC (C. auris temp probe): > 128 µg/mL | MIC (C. glabrata 8018): > 128 µg/mL | MIC (C. tropicalis 8760): > 128 µg/mL | MIC (C. krusei 3876): 32 µg/mL (≈ 104 µM) | MIC (C. parapsilosis 3209): 0.25 µg/mL (≈ 0.816 µM) | MIC (C. parapsilosis): 0.5 µg/mL (≈ 1.63 µM)

O=C(O)c1cn(C2CC2)c2cc(N3CCNCC3)c(F)cc2c1=O [Ciprofloxacin]
MIC of antibiotic (P. aeruginosa PAO1; No bola (Table S1)): 0.125 µg/mL | MIC of antibiotic (P. aeruginosa PAO1; [1]): 1 µg/mL | MIC of antibiotic (P. aeruginosa PAO1; [2]): 1 µg/mL | MIC of antibiotic (P. aeruginosa NCTC 13437; No bola (Table S1)): 32 µg/mL | MIC of antibiotic (P. aeruginosa NCTC 13437; [1]): > 64 µg/mL | MIC of antibiotic (P. aeruginosa NCTC 13437; [2]): > 64 µg/mL

CC(C)(O/N=C(\C(=O)N[C@@H]1C(=O)N2C(C(=O)[O-])=C(C[n+]3ccccc3)CS[C@H]12)c1csc(N)n1)C(=O)O [Ceftazidime]
MIC of antibiotic (P. aeruginosa PAO1; No bola (Table S1)): 2 µg/mL | MIC of antibiotic (P. aeruginosa PAO1; [2]): 2 µg/mL | MIC of antibiotic (P. aeruginosa NCTC 13437; No bola (Table S1)): > 128 µg/mL | MIC of antibiotic (P. aeruginosa NCTC 13437; [1]): > 128 µg/mL | MIC of antibiotic (P. aeruginosa NCTC 13437; [2]): > 128 µg/mL

C[C@H]1c2cccc(O)c2C(=O)C2=C(O)[C@]3(O)C(=O)C(C(N)=O)=C(O)[C@@H](N(C)C)[C@@H]3[C@@H](O)[C@@H]21 [Doxycyline]
MIC of antibiotic (P. aeruginosa PAO1; No bola (Table S1)): 32 µg/mL | MIC of antibiotic (P. aeruginosa PAO1; [1]): 64 µg/mL | MIC of antibiotic (P. aeruginosa PAO1; [2]): 128 µg/mL | MIC of antibiotic (P. aeruginosa NCTC 13437; No bola (Table S1)): > 256 µg/mL | MIC of antibiotic (P. aeruginosa NCTC 13437; [1]): > 256 µg/mL | MIC of antibiotic (P. aeruginosa NCTC 13437; [2]): > 256 µg/mL

CC1(C)S[C@@H]2[C@H](NC(=O)[C@H](N)c3ccccc3)C(=O)N2[C@H]1C(=O)O [Ampicillin]
MIC of antibiotic (P. aeruginosa PAO1; No bola (Table S1)): > 512 µg/mL | MIC of antibiotic (P. aeruginosa PAO1; [2]): > 512 µg/mL | MIC of antibiotic (P. aeruginosa NCTC 13437; No bola (Table S1)): > 512 µg/mL | MIC of antibiotic (P. aeruginosa NCTC 13437; [1]): > 512 µg/mL | MIC of antibiotic (P. aeruginosa NCTC 13437; [2]): > 512 µg/mL

C[C@@H](O)[C@H]1C(=O)N2C(C(=O)O)=C(S[C@@H]3CN[C@H](C(=O)N(C)C)C3)[C@H](C)[C@H]12 [Meropenem]
MIC of antibiotic (P. aeruginosa PAO1; No bola (Table S1)): > 2 µg/mL | MIC of antibiotic (P. aeruginosa PAO1; [2]): > 2 µg/mL | MIC of antibiotic (P. aeruginosa NCTC 13437; No bola (Table S1)): > 32 µg/mL | MIC of antibiotic (P. aeruginosa NCTC 13437; [1]): > 32 µg/mL | MIC of antibiotic (P. aeruginosa NCTC 13437; [2]): > 32 µg/mL
